The subject of experiment [1] is Streptozotocin (STZ) induced diabetic rats. Put plainly: Study 2: HCQ and its combination with Losartan in comparison with anti-diabetic control (Glimepiride) in renal damage. Format: in vivo, Wistar rats. On the procedure: The Efficacy of the drugs was tested in two different models, one involving comparison with diabetic control (i.e. Diabetic Rats not treated with any medication) and the other involving comparison with the anti-diabetic control group (i.e. Diabetic rats administered Glimepiride) in two separate studies. 30 Wistar rats of either sex weighing 150-250 g were divided randomly into 5 groups consisting of 6 animals each. Diabetes was induced in rats by single administration of Streptozotocin (STZ)(55 mg/kg/i.p) dissolved in 0.1 M-citrate buffer, pH 4.5. Group 1 (normal control) consisted of normal rats that neither received streptozotocin nor any test drug; Group 2 served as Anti-Diabetic control wherein diabetic rats were treated with antidiabetic drug Glimepiride. Group 3 was diabetic rats treated with Losartan (11 mg/kg); Group 4 was diabetic rats treated with Hydroxychloroquine (45 mg/kg) and Group 5 was diabetic rats treated with combination of Hydroxychloroquine (45 mg/kg) and Losartan (11 mg/kg). The study drugs were dissolved/suspended in distilled water and administered orally once a day for eight weeks. The diabetes mellitus induced nephropathy was assessed by estimating the level of serum creatinine and total serum protein content after completion of eighth week of study. TBARS and Total Protein were measured as markers of renal oxidative stress in Kidney Homogenate after completion of eighth week of study.

Experiment [2] relates to STZ induced diabetic nephropathy in rats. Put plainly: Study 4: HCQ and its combination with Losartan, Telmisartan, Azilsartan and Ramipril, with Glimepiride control. The note with it: dose mg/kg: HCQ 70, GLM 1. The format is in vivo, Wistar rats. On the procedure:
The methods described in Terri et al, Diabetes Volume, 1997, 46:1612-1618, and Takashi et al, Jpn J. Pharmacol, 1997, 75, 59-64, were followed for inducing Diabetes in rats by injecting Streptozotocin. The Efficacy of the drugs was tested in two different models, one involving comparison with diabetic control (i.e. Diabetic Rats not treated with any medication) and the other involving comparison with the anti-diabetic control group (i.e. Diabetic rats administered Glimepiride) in two separate studies.
Wistar rats of either sex weighing 150-200 g were divided randomly into 28 groups consisting of 6 animals each. Diabetes was induced in rats by single administration of streptozotocin (55 mg/kg/i.p) dissolved in 0.1 M-citrate buffer, pH 4.5. Group 1 (normal control) consisted of normal rats that neither received streptozotocin nor any test drug; Group 2 served as Diabetic control; Group 3 was diabetic rats treated with Hydroxychloroquine (35 mg/kg); Group 4 was diabetic rats treated with Hydroxychloroquine (45 mg/kg) and Group 5 was diabetic rats treated with Hydroxychloroquine (70 mg/kg); Group 6 was diabetic rats treated with Losartan (5.5 mg/kg); Group 7 was diabetic rats treated with Losartan (11 mg/kg); Group 8 was diabetic rats treated with combination of Losartan (5.5 mg/kg) and Hydroxychloroquine (45 mg/kg); Group 9 was diabetic rats treated with combination of Losartan (11 mg/kg) and Hydroxychloroquine (35 mg/kg); Group 10 was diabetic rats treated with Ramipril (0.6 mg/kg); Group 11 was diabetic rats treated with Ramipril (0.3 mg/kg); Group 12 was diabetic rats treated with combination of Ramipril (0.6 mg/kg) and Hydroxychloroquine (35 mg/kg); Group 13 was diabetic rats treated with combination of Ramipril (0.3 mg/kg) and Hydroxychloroquine (45 mg/kg); Group 14 was diabetic rats treated with combination of Ramipril (0.6 mg/kg) and Hydroxychloroquine (45 mg/kg); Group 15 was diabetic rats treated with combination of Ramipril (0.3 mg/kg) and Hydroxychloroquine (35 mg/kg); Group 16 was diabetic rats treated with Telmisartan (9.5 mg/kg); Group 17 was diabetic rats treated with Telmisartan (4.5 mg/kg); Group 18 was diabetic rats treated with combination of Telmisartan (9.5 mg/kg) and Hydroxychloroquine (35 mg/kg); Group 19 was diabetic rats treated with combination of Telmisartan (4.5 mg/kg) and Hydroxychloroquine (45 mg/kg); Group 20 was diabetic rats treated with combination of Telmisartan (9.5 mg/kg) and Hydroxychloroquine (45 mg/kg); Group 21 was diabetic rats treated with combination of Telmisartan (4.5 mg/kg) and Hydroxychloroquine (35 mg/kg); Group 22 was diabetic rats treated with Azilsartan (4.5 mg/kg); Group 23 was diabetic rats treated with Azilsartan (2.5 mg/kg); Group 24 was diabetic rats treated with combination of Azilsartan (4.5 mg/kg) and Hydroxychloroquine (35 mg/kg); Group 25 was diabetic rats treated with combination of Azilsartan (2.5 mg/kg) and Hydroxychloroquine (45 mg/kg); Group 26 was diabetic rats treated with combination of Azilsartan (4.5 mg/kg) and Hydroxychloroquine (45 mg/kg); Group 27 was diabetic rats treated with combination of Azilsartan (2.5 mg/kg) and Hydroxychloroquine (35 mg/kg); Group 28 served as Anti-Diabetic control wherein diabetic rats were treated with antidiabetic drug Glimepiride (GLM) (1 mg/kg).
The study drugs were dissolved/suspended in vehicle and administered orally once a day for eight weeks. The diabetes mellitus induced nephropathy was assessed by estimating the level of serum urea, serum creatinine and total serum protein content after completion of eighth week of study. TBARS, GSH and Total Protein were measured as markers of renal oxidative stress in Kidney Homogenate after completion of eighth week of study. Blood glucose levels were also assessed at weekly interval.

[3] abbreviates: Glimepiride 8 mg/kg alone (antidiabetic control) or with Losartan 11 mg/kg and/or Hydroxychloroquine 45 mg/kg, oral once daily.
Setting [4] is: after 8th week, Glimepiride 8 mg/kg alone or with Losartan 11 mg/kg and/or Hydroxychloroquine 45 mg/kg.
Where [5] appears, read: kidney homogenate, after 8th week, Glimepiride 8 mg/kg alone or with Losartan 11 mg/kg and/or Hydroxychloroquine 45 mg/kg.
Setting [6] is: kidney homogenate, after 8th week.

The values that follow come from patent US20160030415A1, “TREATMENT AND PROPHYLAXIS OF KIDNEY DISEASES” (priority 2013, published 2016).

Marks after values point to notes of the source that are not given here.

On to `CCC1=C(C)CN(C(=O)NCCc2ccc(S(=O)(=O)NC(=O)N[C@H]3CC[C@H](C)CC3)cc2)C1=O` [Glimepiride], for which, in experiment [1] (setting [3]), the “Serum Creatinine after 8th week” value amounted to 3.17 mg/dL, the “Serum Creatinine after 8th week (% Control)” value is reported as “(100) % Control”, the “Total Serum Protein Levels after 8th week” value amounted to 4.73 g/dL and the “Total Serum Protein Levels after 8th week (% Control)” value is recorded as “(100) % Control”. In experiment [1] (setting [4]), the “Total Protein in Kidney Homogenate (% Control)” value is on record as “(100) % Control” and the “Total Protein in Kidney Homogenate Mean” value is 926.67 µg/mL. In addition, in experiment [1] (setting [5]), the “TBARS (% Control)” value is “(100) % Control” and the “TBARS Mean” value is recorded as 0.82 nM/mg. In addition, in experiment [2] (after 8th week), the HDL turned out to be 29 ± 1.41 mg/dL, the TC was 142 ± 2.68 mg/dL and the TG came to 96.5 ± 2.35 mg/dL. In addition, the “Glucose Day1” value in experiment [2] (blood, Day1) amounted to 276.83 ± 19.14 mg/dL. Besides, the “Glucose Day14” value in experiment [2] (blood, Day14) turned out to be 216.67 ± 18.44 mg/dL. The “Glucose Day28” value in experiment [2] (blood, Day28) was 179.17 ± 7.36 mg/dL. For the same molecule, the “Glucose Day42” value in experiment [2] (blood, Day42) came to 159 ± 6.07 mg/dL. In experiment [2] (blood, Day56), the “Glucose Day56” value amounted to 149.17 ± 7.83 mg/dL. In addition, in experiment [2] (setting [6]), the GSH is on record as 2.36 ± 0.64 nM/mg, the TBARS is on record as 0.5 ± 0.13 nM/mg and the Total protein kidney was determined as 856.83 ± 18.18 µg/mL. Moreover, in experiment [2] (serum, after 8th week), the Creatinine is 3.21 ± 0.23 mg/dL, the Total protein came out at 4.8 ± 0.18 g/dL and the Urea is recorded as 43 ± 2.1*^ mg/dl.
